{"source": "patent US20250177405A1", "about": "“METHODS OF TREATING NEUROLOGICAL AND CARDIOVASCULAR CONDITIONS” (ASTROCYTE PHARMACEUTICALS, INC., priority 2021, published 2025)", "key": {"[1]": {"tested_on": "cynomolgus monkey model of transient middle cerebral artery occlusion (tMCAO)", "test": "transient middle cerebral artery occlusion (tMCAO) stroke model, MRI lesion and penumbra volume", "type": "in vivo, Macaca fascicularis", "settings": "for overall DWI lesion volume smaller compared to vehicle: I-1 composite", "source_text": "A total of 25 adult male Macaca fascicularis macaques were used in this study, with ages ranging from 47-83 months and weights ranging from 2.7-5.4 kg.\nUnder deep anesthesia, the right eyeball was removed, and the orbital content was dissected and excised using a surgical microscope (KOM300, Konan Medical Inc., Hogo, Japan). A window of approximately 10 mm in diameter was opened just anterior to the foramen of the optic canal at the base of the skull, allowing identification of the right middle cerebral artery (MCA) main trunk beneath the dura. After opening the dura mater, tMCAO was performed using 2 microvascular clips (Sugita TII, 17-001-81, Mizuho Medical, Tokyo, Japan), one on the proximal part of the main MCA trunk and the other on the distal-to-orbitofrontal brunch. Four hours after tMCAO, these clips were removed. After visual confirmation of recanalization of MCA blood flow, the burr hole was closed using Clearfil New Bond (Kuraray Noritake Dental, Inc., Tokyo, Japan) and the orbital cavity was closed according to best veterinary practice.\nTransorbital transient MCA occlusion (tMCAO) was performed using 2 microvascular clips, one placed on the proximal part of the main MCA trunk and the other on the distal-to-orbitofrontal branch (references 10, 11, 24). Four hours after MCA occlusion, these clips were removed for recanalization. After visual confirmation of restituted MCA blood flow, the burr hole was closed using Clearfil New Bond (Kuraray Noritake Dental, Inc., Tokyo, Japan) and the orbital cavity was closed according to best veterinary practice.\nSerial coronal magnetic resonance imaging (MRI) of the brain (3 mm slice thickness) was performed 0.5, 1.5, 1.8, 3.5, 6.0, 24 and 120 h post-occlusion. Imaging sequences were (i) diffusion-weighted imaging (DWI), arterial spin labeling (ASL), (ii) magnetic resonance angiography (MRA), and (iii) fluid-attenuated inversion-recovery (FLAIR) T2-weighted imaging. Apparent diffusion coefficient (ADC) maps, cerebral blood flow (CBF), and perfusion deficit were generated with FuncTool Performance (GE Healthcare, Milwaukee, WI, USA) available on the MRI scanner console. Inhibition of lesion volume was considered the primary efficacy endpoint. Penumbral volume (mm^3) was calculated by subtracting the lesion volume delineated from the DWI diffusion maps from the total calculated perfusion deficit.\nThe infarct (lesion) areas (mm^2) of each coronal image were marked using OsiriX version 8.0.2 (Pixmeo SARL, Bernex, Switzerland). The infarct was manually delineated using DWI maps. The lesion volume (mm^3) was calculated as the sum of the product of each section's infarct area and slice thickness (3 mm). […] The perfusion deficit (mm^3) was calculated from ASL maps as a reduction to <30% and <50% of the corresponding region of the contralateral side. […] Penumbral volume (mm^3) was calculated by subtracting the lesion volume delineated from the DWI diffusion maps from the total calculated perfusion deficit.\nMacaques received a bolus dose of vehicle (40% PEG400 in 0.9% saline) or I-1 into a saphenous vein 2 h after occlusion (2 h prior to restoration of MCA blood flow), followed immediately by a 22 h intravenous infusion. This dosing regimen was designed to rapidly achieve and maintain pre-determined plasma and cerebrospinal fluid (CSF) steady-state concentrations of I-1 based on its pharmacokinetics previously determined in näive and MCA occluded macaques (Tables A-C below)."}, "[2]": {"test": "pharmacokinetics of I-1 after intravenous bolus in normal and tMCAO nonhuman primates", "type": "in vivo, nonhuman primate", "settings": "for C0 / clearance / half-life / Vd: monkey, plasma, iv, 0.5 mg/kg, intravenous bolus 0.5 mg/kg; for Vd: read-out: Vdss"}, "[3]": {"test": "plasma and brain unbound fractions of I-1 in nonhuman primates", "type": "in vitro ADME", "settings": "nonhuman primate, Normal NHP (n = 3)"}, "[4]": {"tested_on": "cynomolgus monkey model of transient middle cerebral artery occlusion (tMCAO)", "test": "Neurologic Deficit Score (NDS) after tMCAO", "type": "in vivo, Macaca fascicularis", "settings": "study Days 1 to 5, I-1-treated composite versus vehicle, p=0.11", "source_text": "Twenty-four hours and 5 days after occlusion, neurologic deficits were scored using the Neurologic Deficits Score (NDS) as described elsewhere (reference 25). The NDS was considered as a secondary efficacy endpoint."}, "[5]": {"test": "neonatal pig pharmacokinetics: CSF versus brain extracellular fluid concentrations", "type": "in vivo", "settings": "brain equilibrium dialysis", "source_text": "Using this receptor occupancy estimate, we advanced to studies in neonatal pigs, targeting doses that would yield unbound brain and CSF concentrations that would provide a similar receptor occupancy to that associated with efficacy in the rodent models. In the pig, we had the advantage of conducting pharmacokinetic studies involving CSF collection, brain equilibrium dialysis to directly determine brain unbound extracellular fluid concentrations, plasma concentrations and finally total brain concentrations. […] This was a key study to validate the use of I-1 CSF concentrations to estimate brain receptor occupancy. In the pig efficacy studies, we achieved efficacy at estimated receptor occupancies of around 2%.\nAnimals. Four-week old female neonatal pigs weighing approximately 7.5 Kg may be used for this study. Animals are equipped with brain microdialysis probes to obtain brain extracellular fluid samples for drug concentration determinations during the study.\nTissue Sampling: Blood samples are obtained at 0.25, 0.5, 1, 2, 4 and 6 hours post-dose. […]\nPlasma, brain, brain extracellular fluid and cerebrospinal fluid concentrations of test compound are determined by LC-MS/MS utilizing tolbutamide as an internal standard. For each tissue matrix, standard curves are created and LLOQ/ULOQ concentrations determined."}, "[6]": {"test": "plasma protein binding (free fraction)", "type": "in vitro ADME", "settings": "mouse", "source_text": "Example 3 of U.S. Pat. No. 9,789,131, which is incorporated herein by reference, describes assays for determining the plasma and brain free fraction of certain compounds such as I-1. Compounds described herein may be evaluated using such assays or similar variants thereof."}}, "note": "Where two headings read alike, the source gives them in different places.", "data": [{"compound": "CSc1nc(N)c2ncn([C@H]3C(O)C(O)[C@]4(CO)C[C@H]34)c2n1", "note": "(stereo in doubt) [Compound I-1]", "values": [{"measurement": "lesion growth rate (slope of lesion growth) after treatment initiation", "setting": "[1]; 1.8-6.0 h post-occlusion, versus vehicle and pre-treatment, composite p=0.004", "value": "rapid decrease in lesion growth rate"}, {"measurement": "decrease in penumbra volume during the ischemic period", "setting": "[1]; I-1-treated composite (n=16), 0.5 h to 3.5 h post-occlusion, vehicle 71%, p=0.01", "value": 48, "unit": "%"}, {"measurement": "rate of penumbra volume decrease", "setting": "[1]; I-1-treated composite, vehicle 604.5 mm^3/h", "value": 296.0, "unit": "mm^3/h"}, {"measurement": "overall DWI lesion volume smaller compared to vehicle", "setting": "[1]; 24 h post-occlusion, p=0.07", "value": 20, "unit": "%"}, {"measurement": "overall DWI lesion volume smaller compared to vehicle", "setting": "[1]; 120 h post-occlusion, p=0.05", "value": 30, "unit": "%"}, {"measurement": "I-1 plasma concentrations after single intravenous bolus", "setting": "[2]; 8 h post-dose", "value": "below bioanalytical limits of quantitation"}, {"measurement": "C0", "setting": "[2]; Normal NHP (n = 3)", "value": 329, "unit": "ng/mL"}, {"measurement": "clearance", "setting": "[2]; Normal NHP (n = 3)", "value": 29, "unit": "mL/min/kg"}, {"measurement": "half-life", "setting": "[2]; Normal NHP (n = 3)", "value": 1.3, "unit": "h"}, {"measurement": "Vd", "setting": "[2]; Normal NHP (n = 3)", "value": 3.1, "unit": "L/kg"}, {"measurement": "C0", "setting": "[2]; tMCAO NHP (n = 1)", "value": 544, "unit": "ng/mL"}, {"measurement": "clearance", "setting": "[2]; tMCAO NHP (n = 1)", "value": 28, "unit": "mL/min/kg"}, {"measurement": "half-life", "setting": "[2]; tMCAO NHP (n = 1)", "value": 1.5, "unit": "h"}, {"measurement": "Vd", "setting": "[2]; tMCAO NHP (n = 1)", "value": 3, "unit": "L/kg"}, {"measurement": "fraction unbound", "setting": "[3]; brain, read-out: Brain Unbound Fraction", "value": "0.56 ± 0.05"}, {"measurement": "fraction unbound", "setting": "[3]; plasma, read-out: Plasma Unbound Fraction", "value": "0.26 ± 0.05"}, {"measurement": "neurological function (NDS) change", "setting": "[4]", "value": "improved but statistically non-significant"}, {"measurement": "I-1 concentrations in the CSF versus unbound brain extracellular fluid", "setting": "[5]", "value": "equal to unbound brain extracellular fluid concentrations"}, {"measurement": "free (unbound) fraction in plasma", "setting": "[6]", "value": 0.74}]}]}
